Results published in article PMC7948796, “Mammalian-like type II glutaminyl cyclases in Porphyromonas gingivalis and other oral pathogenic bacteria as targets for treatment of periodontitis” (The Journal of Biological Chemistry, 2021).
In brackets after ≈: the same amount, converted by molar mass. Entries after “also recorded” stand apart in the source; their conditions may differ.

Legend:
[1] = tested on: P. gingivalis ATCC 33277; test: Growth curves, OD at 600 nm; format: cell-based, Porphyromonas gingivalis; details: laboratory strain ATCC 33277, Fig. 6A
Protocol: (§1) In addition, we monitored the growth of two P. gingivalis strains ([…] and J374-1) by measuring the OD at 600 nm at different time points (it was not possible to make continuous measurements due to the anaerobic growth conditions of P. gingivalis), with the OD600 being recorded at 0 h, 16 h, 20 h, 24 h, and 42 h.

[2] = tested on: P. gingivalis J374-1; test: Growth curves, OD at 600 nm; format: cell-based, Porphyromonas gingivalis; details: clinical isolate J374-1, Fig. 6B
Protocol: as §1

[3] = tested on: Porpyhromonas gingivalis J374–1 (clinical isolate); test: MIC, micro-broth dilution; format: cell-based, Porphyromonas gingivalis
Protocol: (§2) The micro-broth dilution technique was used to determine MICs. After subcultivation of bacterial strains and checking of purity, a defined inoculum was added to Wilkins–Chalgren broth (Oxoid) supplemented with 10 μg/ml β-NAD (Sigma-Aldrich) containing the inhibitor. A twofold dilution series was made, starting from 2 mM (final concentration) of the inhibitor. The growth control contained 10% of the inhibitor dissolvent at 2 mM (0.01% DMSO in a buffer with 50 mM TRIS, pH 8, and 50 mM NaCl). After an incubation period of 42 h (18 h for the aerobic S. gordonii), the growth of microbes was analyzed by visual analysis of the turbidity. MIC represents the lowest concentration without visible turbidity. All experiments were made using independent replicates.

[4] = tested on: Porpyhromonas gingivalis ATCC 33277; test: MIC, micro-broth dilution; format: cell-based, Porphyromonas gingivalis
Protocol: as §2

[5] = tested on: Porpyhromonas gingivalis M5-1-2 (clinical isolate); test: MIC, micro-broth dilution; format: cell-based, Porphyromonas gingivalis
Protocol: as §2

[6] = molecular target: HsQC (Homo sapiens, UniProt Q16769); test: QC inhibition assay with fluorogenic substrate H-Gln-AMC (Ki); format: biochemical; details: read-out: Ki value for HsQC
[7] = molecular target: PgQC (Porphyromonas gingivalis, UniProt Q7MT37); test: as above; format: biochemical; parameters: His-tag (pET28a, thrombin-cleavable) (N, cleaved yes); made in house; host or cells: E. coli Rosetta(DE3)pLysS; details: Ki value for PgQC
Protocol: Inhibitory constants were determined using concentrations of H-Gln-AMC varying from 1/4 KM to 2 KM and a final concentration of bacterial QC in a range between 25 nM and 50 nM. Progress curves were fitted to the general equation for competitive inhibition.

[8] = tested on: Prevotella intermedia ATCC 25611; test: MIC, micro-broth dilution; format: cell-based
Protocol: as §2

[9] = tested on: Streptococcus gordonii ATCC 10558; test: MIC, micro-broth dilution; format: cell-based
Protocol: as §2

[10] = tested on: Tannerella forsythia ATCC 43037; test: MIC, micro-broth dilution; format: cell-based
Protocol: as §2

[11] = tested on: Fusobacterium nucleatum ATCC 25586; test: MIC, micro-broth dilution; format: cell-based
Protocol: as §2

[12] = substrate: CC(C)[C@H](NC(=O)[C@H](CCC(N)=O)NC(=O)[C@@H](N)CCC(N)=O)C(=O)N[C@@H](C)C(=O)N[C@@H](C)C(=O)N[C@@H](C)C(=O)N[C@@H](CC(=O)O)C(=O)N1CCC[C@H]1C(=O)N[C@@H](CO)C(=O)N1CCC[C@H]1C(N)=O; test: Conversion of N-termini of putative natural substrates, spectrophotometric assay with glutamate dehydrogenase; format: biochemical, Porphyromonas gingivalis; details: other: PgQC; determined under first-order-rate law conditions, [S] << KM; pH 8.0; 30.0 °C
Protocol: (§3) For evaluation of possible physiological substrates, PgQC activity was determined spectrophotometrically by using glutamate dehydrogenase as auxiliary enzyme described previously ([44]). […] After 10-min incubation time at 30 °C, reactions were initiated by addition of approximately 115 nM PgQC to a final volume of 250 μl reaction mixture. QC turnover of substrates was monitored by a decrease of absorption at 340 nm and enzyme activity was determined from a standard curve of NH4Cl at assay conditions.

[13] = substrate: C[C@H](NC(=O)[C@H](CCC(=O)O)NC(=O)[C@H](Cc1ccc(O)cc1)NC(=O)[C@@H](NC(=O)[C@H](CCCNC(=N)N)NC(=O)[C@H](CC(N)=O)NC(=O)[C@H](CCCNC(=N)N)NC(=O)[C@H](CO)NC(=O)[C@@H](N)CCC(N)=O)[C@@H](C)O)C(=O)N[C@@H](Cc1ccc(O)cc1)C(N)=O; test: as above; format: biochemical, Porphyromonas gingivalis; details: other: PgQC, pH 8.0, 30 °C
Protocol: as §3

[14] = substrate: CC[C@H](C)[C@H](NC(=O)[C@H](CO)NC(=O)[C@H](CC(=O)O)NC(=O)[C@@H]1CCCN1C(=O)[C@@H](NC(=O)[C@@H](NC(=O)[C@H](CO)NC(=O)[C@@H](N)CCC(N)=O)C(C)C)C(C)C)C(=O)NCC(=O)N[C@@H](CCCNC(=N)N)C(N)=O; test: as above; format: biochemical, Porphyromonas gingivalis; details: other: PgQC, pH 8.0, 30 °C
Protocol: as §3

[15] = substrate: CC(C)[C@H](NC(=O)[C@H](CO)NC(=O)[C@H](C)NC(=O)[C@H](CC(N)=O)NC(=O)[C@H](CO)NC(=O)[C@H](CCC(=O)O)NC(=O)[C@@H](N)CCC(N)=O)C(=O)N[C@@H](CCCNC(=N)N)C(=O)N1CCC[C@H]1C(=O)N[C@@H](CO)C(N)=O; test: as above; format: biochemical, Porphyromonas gingivalis; details: other: PgQC; determined under first-order-rate law conditions, [S] << KM; pH 8.0; 30.0 °C
Protocol: as §3

[16] = substrate: CC[C@H](C)[C@H](NC(=O)[C@@H](NC(=O)[C@H](CC(=O)O)NC(=O)[C@@H](N)CCC(N)=O)C(C)C)C(=O)N[C@@H](CCCNC(=N)N)C(=O)N1CCC[C@H]1C(=O)N[C@@H](Cc1c[nH]c2ccccc12)C(=O)N[C@@H](CO)C(=O)N[C@@H](CC(C)C)C(=O)N[C@@H](CCC(N)=O)C(N)=O; test: as above; format: biochemical, Porphyromonas gingivalis; details: other: PgQC; determined under first-order-rate law conditions, [S] << KM; pH 8.0; 30.0 °C
Protocol: as §3

Chain of HsQC (Q16769 29-361): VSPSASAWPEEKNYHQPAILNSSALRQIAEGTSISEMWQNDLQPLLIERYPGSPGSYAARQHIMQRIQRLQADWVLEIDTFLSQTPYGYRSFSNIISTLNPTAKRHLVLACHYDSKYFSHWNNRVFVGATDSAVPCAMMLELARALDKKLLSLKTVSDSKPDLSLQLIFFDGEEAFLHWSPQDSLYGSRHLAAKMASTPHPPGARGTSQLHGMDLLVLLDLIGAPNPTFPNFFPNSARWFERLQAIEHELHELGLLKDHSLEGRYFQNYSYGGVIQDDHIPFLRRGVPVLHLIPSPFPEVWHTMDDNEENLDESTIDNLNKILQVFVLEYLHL

Clc1ccc(CNc2cnc3nc[nH]c3c2)cc1 [S-316, N-(4-chlorobenzyl)imidazo[4,5-b]pyridin-6-amine]
P. gingivalis growth inhibition, dependence on concentration [1]: dose-dependent; also recorded: concentration-dependent manner | P. gingivalis growth inhibition, dependence on concentration [2]: dose-dependent; also recorded: concentration-dependent manner | MIC in words ([3]; P. gingivalis clinical isolate): submillimolar | MIC ([3]; Porphyromonas gingivalis, P. gingivalis J374–1 clinical isolate, 42 h): 500 µM (≈ 129 µg/mL) | MIC in words ([4]; P. gingivalis laboratory strain): submillimolar | MIC ([4]; Porphyromonas gingivalis, ATCC33277, P. gingivalis ATCC 33277, 42 h): 500 µM (≈ 129 µg/mL) | MIC in words ([5]; P. gingivalis clinical isolate): submillimolar | MIC ([5]; Porphyromonas gingivalis, P. gingivalis M5-1-2 clinical isolate, 42 h): 250 µM (≈ 64.7 µg/mL) | Ki [6]: 655 ± 27 nM | Ki [7]: 53 ± 1.1 nM | MIC in words ([8]; P. intermedia): submillimolar | MIC ([8]; Prevotella intermedia, ATCC25611, P. intermedia ATCC 25611, 42 h): 125 µM (≈ 32.3 µg/mL) | Growth attenuation ([9]; Gram-positive S. gordonii, no QC-like enzyme): did not result in growth attenuation | MIC ([9]; Streptococcus gordonii, ATCC10558, S. gordonii ATCC 10558, 18 h): > 2000 µM | MIC in words ([10]; T. forsythia): submillimolar | MIC ([10]; Tannerella forsythia, ATCC43037, T. forsythia ATCC 43037, 42 h): 500 µM (≈ 129 µg/mL) | MIC ([11]; Fusobacterium nucleatum, ATCC25586, F. nucleatum ATCC 25586, 42 h): > 2000 µM | Growth attenuation ([11]; Gram-negative F. nucleatum, no QC-like enzyme): did not result in growth attenuation

B1: PgQC (Porphyromonas gingivalis W83) (protein)
chain: NGNNTSETQGDRTEQAETVQADLFSADSAYTFVQRQVNFGPRIPGTAPHRACGDWLVATLRSFGAAVQEQTAEIKAHDGTMLPMRNIIASYRPEATGRMLLMAHWDTRPVCDQDANPAMHTETFDGADDGGSGVGVLLEIARYLGQQKDLGMGIDIVFFDTEDYGSYGDDESWCLGSQYWSRNPHVAGYKAEAGILLDMVGAKGATFYWEYFSKSYAPGLISAVWQTAAALGYGNYFIQADGGALTDDHVPVIKNLGIPCIDIINYSSKNEHGFGDHWHTQRDNMQIIDKNVLDAVGETVIRYLDEQVKAASH
kcat/Km [12]: 12500 ± 1900 M⁻¹ s⁻¹ | Km [13]: 203.7 ± 5.1 µM | kcat [13]: 13.3 ± 1.6 s⁻¹ | kcat/Km [13]: 65100 ± 6000 M⁻¹ s⁻¹ | Km [14]: 492.5 ± 26 µM | kcat [14]: 7 ± 0.66 s⁻¹ | kcat/Km [14]: 14300 ± 600 M⁻¹ s⁻¹ | kcat/Km [15]: 4300 ± 100 M⁻¹ s⁻¹ | kcat/Km [16]: 18600 ± 100 M⁻¹ s⁻¹
